Assay results from patent US20160159816A1, “SUBSTITUTED THIENOPYRIMIDINES AND PHARMACEUTICAL USE THEREOF” (BAYER PHARMA AKTIENGESELLSCHAFT, priority 2013, published 2016).
pIC50: −log10 of the molar value.

Molecular target: T1, human full-length MKNK1 (Homo sapiens, UniProt Q9BUB5, T385D)
T1 construct: GST (N); purchased Carna Biosciences 02-145; host or cells: insect cells, baculovirus expression system
Experiment: MKNK1 kinase high ATP assay (TR-FRET)
Format: biochemical
Settings: high ATP (2 mM), after preincubation with MKNK1; compounds of the present invention (Table 1a)
How it was run: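 GST-tagged full-length human MKNK1 pre-incubated 15 min with compound, then reacted 30 min at 22 °C with 2 mM ATP and 0.06 μM biotinylated peptide substrate (pH 7.5). Phospho-peptide detected by TR-FRET (665/620 nm ratio); normalised to no-inhibitor and no-enzyme controls.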

T1 sequence (Q9BUB5 1-424 isoform Q9BUB5-2 T344D): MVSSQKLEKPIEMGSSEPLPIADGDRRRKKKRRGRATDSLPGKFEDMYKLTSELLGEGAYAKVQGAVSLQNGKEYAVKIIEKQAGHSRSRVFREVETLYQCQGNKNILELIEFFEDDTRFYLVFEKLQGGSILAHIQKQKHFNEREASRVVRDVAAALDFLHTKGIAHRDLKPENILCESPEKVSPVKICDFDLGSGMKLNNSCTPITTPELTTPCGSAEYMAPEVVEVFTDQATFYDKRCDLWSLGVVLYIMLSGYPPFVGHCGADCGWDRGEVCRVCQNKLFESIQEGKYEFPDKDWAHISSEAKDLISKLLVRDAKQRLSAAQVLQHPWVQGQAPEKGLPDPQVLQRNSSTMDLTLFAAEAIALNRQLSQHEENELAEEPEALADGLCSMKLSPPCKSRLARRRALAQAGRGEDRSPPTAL

- pIC50: 7.89
SMILES: COc1cc2[nH]ncc2cc1Nc1ncnc2sc3c(c12)CC[C@@](C)(C(=O)N(C)OC)C3 [Example 59, (7R) N-Methoxy-4-[(6-methoxy-1H-indazol-5-yl)amino]-N,7-dimethyl-5,6,7,8-tetrahydro[1]benzothieno[2,3-d]pyrimidine-7-carboxamide]
